Measurements reported in publication PMC10569036.

Key:
[1] = shake flask on a mixture of 185; loss from the water phase only; LC-QTOF peak areas; conditions: room
[2] = shake flask on a mixture of 185; loss from the water phase only; LC-Orbitrap peak areas; conditions: room

log partition 1-octanol / HPLC water, unbuffered, traces of methanol / DMSO [2] | log partition butyl acetate / HPLC water, unbuffered, traces of methanol / DMSO [2] | log partition chloroform / HPLC water, unbuffered, traces of methanol / DMSO [2] | log partition cyclohexane / HPLC water, unbuffered, traces of methanol / DMSO [2] | log partition dichloromethane / HPLC water, unbuffered, traces of methanol / DMSO [2] | log partition n-hexane / HPLC water, unbuffered, traces of methanol / DMSO [2] | log partition n-octane / HPLC water, unbuffered, traces of methanol / DMSO [2] | log partition n-undecane / HPLC water, unbuffered, traces of methanol / DMSO [2] | log partition oleylalcohol / HPLC water, unbuffered, traces of methanol / DMSO [2] | log partition toluene / HPLC water, unbuffered, traces of methanol / DMSO [2] | SMILES | log partition 1-octanol / HPLC water, unbuffered, traces of methanol / DMSO [1] | log partition butyl acetate / HPLC water, unbuffered, traces of methanol / DMSO [1] | log partition chloroform / HPLC water, unbuffered, traces of methanol / DMSO [1] | log partition cyclohexane / HPLC water, unbuffered, traces of methanol / DMSO [1] | log partition dichloromethane / HPLC water, unbuffered, traces of methanol / DMSO [1] | log partition n-hexane / HPLC water, unbuffered, traces of methanol / DMSO [1] | log partition n-octane / HPLC water, unbuffered, traces of methanol / DMSO [1] | log partition n-undecane / HPLC water, unbuffered, traces of methanol / DMSO [1] | log partition oleylalcohol / HPLC water, unbuffered, traces of methanol / DMSO [1] | log partition toluene / HPLC water, unbuffered, traces of methanol / DMSO [1]
1.133 log10 | 4.432 log10 | 2.334 log10 | -0.5049 log10 | 3.927 log10 | -1.029 log10 | -0.5477 log10 | -0.5963 log10 | 1.914 log10 | -0.7173 log10 | CCCCOC(=O)C(C)Oc1ccc(Oc2ccc(C(F)(F)F)cn2)cc1 (stereo not drawn) | 1.531 log10 | 1.572 log10 | 2.874 log10 | 2.387 log10 | 2.183 log10 | 2.824 log10 | 2.349 log10 | 2.336 log10 | 1.771 log10 | 2.12 log10
1.225 log10 | 0.9932 log10 | 1.423 log10 | 0.1846 log10 | 0.6345 log10 | -0.08609 log10 | 0.2702 log10 | 0.118 log10 | -0.1437 log10 | 0.6204 log10 | C[C@H](CCC(=O)O)[C@H]1CC[C@H]2[C@@H]3CC[C@@H]4C[C@H](O)CC[C@]4(C)[C@H]3CC[C@]12C | 0.06003 log10 | -0.5367 log10 | 0.5205 log10 | -1.544 log10 | 0.7072 log10 | -1.606 log10 | -1.699 log10 | -0.8435 log10 | -0.1203 log10 | -1.053 log10
0.493 log10 | 0.5439 log10 | 0.2882 log10 | -0.9006 log10 | 0.4782 log10 | -1.209 log10 | -0.9336 log10 | -1.048 log10 | 0.1818 log10 | -0.4224 log10 | OCCN(CCO)c1ccccc1 | 0.7171 log10 | 0.3605 log10 | -0.02211 log10 | -1.946 log10 | 0.1152 log10 | -1.82 log10 | -2.014 log10 | -1.783 log10 | 0.6347 log10 | -1.086 log10
